Data published in patent US20050143450A1, “Alkyl PCDF as a treatment for prostate cancer” (priority 2002, published 2005).
Where two headings read alike, the source gives them in different places.

Assays:
AhR = target: T1, AhR (Homo sapiens, UniProt P35869); assay: AhR activation, pDRE3 luciferase transient transfection in LNCaP cells; format: cell-based
T1 construct: LNCaP cells were transfected with pDRE3, treated with various compounds and luciferase activity was determined; endogenous in cells; host or cells: LNCaP
T1 sequence (P35869 11-848): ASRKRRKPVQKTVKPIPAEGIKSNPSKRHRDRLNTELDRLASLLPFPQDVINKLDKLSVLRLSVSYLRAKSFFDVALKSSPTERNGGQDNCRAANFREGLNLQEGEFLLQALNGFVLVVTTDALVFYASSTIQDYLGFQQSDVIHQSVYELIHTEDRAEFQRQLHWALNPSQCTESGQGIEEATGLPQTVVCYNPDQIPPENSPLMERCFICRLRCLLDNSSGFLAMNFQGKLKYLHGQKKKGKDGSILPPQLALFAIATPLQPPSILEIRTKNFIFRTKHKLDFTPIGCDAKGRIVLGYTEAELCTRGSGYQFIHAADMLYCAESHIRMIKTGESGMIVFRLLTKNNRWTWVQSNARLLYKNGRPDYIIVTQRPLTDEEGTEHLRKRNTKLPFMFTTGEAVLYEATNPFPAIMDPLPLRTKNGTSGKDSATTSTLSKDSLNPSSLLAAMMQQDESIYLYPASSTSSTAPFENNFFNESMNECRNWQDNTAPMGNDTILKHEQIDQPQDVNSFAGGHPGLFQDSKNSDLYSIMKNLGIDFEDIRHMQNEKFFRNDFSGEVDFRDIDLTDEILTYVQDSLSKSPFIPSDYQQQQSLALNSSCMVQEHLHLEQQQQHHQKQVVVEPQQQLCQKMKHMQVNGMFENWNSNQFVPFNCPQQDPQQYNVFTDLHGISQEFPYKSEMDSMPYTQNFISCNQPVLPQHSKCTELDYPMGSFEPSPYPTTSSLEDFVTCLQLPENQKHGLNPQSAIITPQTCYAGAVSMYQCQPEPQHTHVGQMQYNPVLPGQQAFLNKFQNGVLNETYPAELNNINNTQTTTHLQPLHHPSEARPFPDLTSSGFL
Protocol: After 24 h, cells were transfected using Lipofectamine and Plus reagents (Invitrogen) according to manufacturer's instructions. LNCaP and ZR-75 cells were transfected with 500 ng/well of either reporter plasmid, and 250 ng/well of pcDNA3.1-β-gal (Invitrogen) as the internal control. In addition, ZR-75 cells were transfected with 500 ng hAR. Twenty-four hours after treatment, cells were harvested by scraping with 200 μL/well of reporter lysis buffer. Lysates were centrifuged at 40,000 g and luciferase and β-galactosidase activity was assayed with 30 μL of the supernatant extract per sample using a Lumicount luminometer (PerkinElmer, Boston, Mass.). Luciferase activity was normalized to β-galactosidase activity for each transfection well.
LNCaP cells were transfected with pDRE3, treated with various compounds and luciferase activity was determined as described in the above Examples.

AR = AR protein levels in LNCaP cells by Western blot; format: cell-based, human; details: 6 h; for AR protein levels, compound alone: DHT 10 nM, E2 10 nM, TCDD 10 nM, 6-MCDF 2 μM, HPTE 10 μM
Protocol: Cells were harvested 6 h after treatment using 200 μL/22-mm well of ice cold lysis buffer (50 mM HEPES, pH 7.5, 500 mM NaCl, 10% (v/v) glycerol, 1% (v/v) Triton-X 100, 1.5 mM MgCl2, 1 mM EGTA) (McDougal et al., 2001). Lysates were centrifuged at 40,000 g, and supernatant was collected as extract. Whole cell extracts (50 μg/sample) were separated by electrophoresis on a tiered 7.5% (top)/12.5% (bottom) SDS-polyacrylamide gel and transferred to PVDF membrane (Bio-Rad, Richmond, Calif.). The membrane was blocked with 5% milk (m/v) in tris-buffered saline 0.05% Tween (TBST). Membranes were incubated with primary antibodies for AR (sc-7305), cyclin D1 (sc-718), or p27 (sc-528) (each from Santa Cruz Biotechnology, Santa Cruz, Calif.) at 1:1000 in 5% milk/TBST for 3 h. Membranes were washed twice in TBST. Horseradish peroxidase (HRP)-conjugated secondary antibodies were applied at 1:5000 in 5% milk/TBST for 1 h. After two TBST washes, PVDF-bounded antibodies were detected using a chemiluminescence kit (Western Lightning, PerkinElmer), ImageTek-H film (American X-Ray and Medical Supply, Rancho Cordova, Calif.) and an autoprocessor (Hope Macro-Med, Warminster, Pa.). Quantitation of the Western blot was performed using a Sharp JX-330 scanner (Sharp, Mahwah, N.J.) and Zero-D software (Scanalytics, Billerica, Mass.).

[1] = system: ethoxyresorufin O-deethylase (EROD) activity in 22Rv1 cells; assay: Induction of EROD activity in 22Rv1 cells; format: cell-based; details: 24-hr treatment
Protocol: (§1) An androgen responsive prostate cancer cell line 22Rv1 and an androgen nonresponsive prostate cancer cell line PC3 were treated with TCDD and ethoxyresorufin O-deethylase (EROD) activity was measured.

[2] = system: ethoxyresorufin O-deethylase (EROD) activity in PC3 cells; assay: Induction of EROD activity in PC3 cells; format: cell-based; details: 24-96 hr
Protocol: as §1

[3] = system: LNCaP prostate cancer cells; format: cell-based, human; details: 48 h
Protocol: Cells were analyzed on a FACS Calibur (Becton Dickinson, San Jose, Calif.) flow cytometer, equipped with a 15 mW air-cooled argon laser, using CellQuest (Becton Dickinson) acquisition software. Propidium iodide (PI) fluorescence was collected through a 585/42-nm bandpass filter, and list mode data were acquired on a minimum of 12,000 single cells defined by a dot plot of PI-width versus PI-area. Data analysis was performed in ModFit LT (Verity Software House, Topsham, Me.) using PI-width versus PI-area to exclude cell aggregates.
The effects of TCDD on cell cycle progression was also determined in LNCaP cells treated with 1.0, 10 and 100 nM TCDD for 48 h followed by FACS analysis (Table 1).

Structure (SMILES)	luciferase activity induction (AhR; pDRE3, 2 μM) [fold]	AR levels in combination with DHT compared to DHT alone (AR)	AR protein levels, compound alone (AR)	EROD activity induction [1]	EROD activity induction ([2]; 1 nM)	EROD activity induction ([2]; 10 nM, maximal after 96 hr)	luciferase activity induction compared to solvent control (DMSO) (AhR; pDRE3, 10 nM) [fold]	cells in S phase ([3]; 1.0, 10 and 100 nM)	percentage of cells in G0/G1 ([3]; 1.0, 10 and 100 nM)	Percent Distribution G0/G1 ([3]; 10^−7 M) [%]	Percent Distribution G2/M ([3]; 10^−7 M) [%]	Percent Distribution S ([3]; 10^−7 M) [%]	Percent Distribution G0/G1 ([3]; 10^−8 M) [%]	Percent Distribution G2/M ([3]; 10^−8 M) [%]	Percent Distribution S ([3]; 10^−8 M) [%]	Percent Distribution G0/G1 ([3]; 10^−9 M) [%]	Percent Distribution G2/M ([3]; 10^−9 M) [%]	Percent Distribution S ([3]; 10^−9 M) [%]	AR levels in combination with E2 compared to E2 alone (AR)
Cc1cc(Cl)cc2c1oc1cc(Cl)cc(Cl)c12 [6-MCDF, 6-methyl-1,3,8-trichlorodibenzofuran]	> 7	significant decrease	did not significantly affect	–	–	–	–	–	–	–	–	–	–	–	–	–	–	–	–
Clc1cc2c(cc1Cl)Oc1cc(Cl)c(Cl)cc1O2 [TCDD, 2,3,7,8-tetrachloro-p-dioxin]	–	significant decrease	did not significantly affect	induced EROD activity	did not induce activity	induced a response	> 9	decrease	small but significant increase	77.500 ± 0.451	8.943 ± 0.471	13.567 ± 0.176	75.367 ± 0.636	10.300 ± 0.153	14.3 ± 0.666	74.300 ± 0.751	10.633 ± 0.376	14.7 ± 0.520	decreased
